In US20130157261A1, “Compositions and Methods for Quantitative Histology, Calibration of Images in Fluorescence Microscopy, and ddTUNEL Analyses” (The Methodist Hospital Research Institute, priority 2011, published 2013):

Tests used:
[1] = system: U87 cells; test: in situ ligation of blunt-ended and 3′-T-OH overhanging oligonucleotide probes (DNA breaks); type: cell-based, human; settings: for number of 3′-T-OH overhang ends / overhanging cuts / number of blunt-ended breaks: 24 hrs after treatment at LD50 concentration; for blebbing of treated cells: microscopy
Procedure: U87, human glioblastoma, cells were obtained from the American TypeCulture Collection (ATCC) Manassas, Va. and grown as recommended in DMEM with penicillin/streptomycin and 10% FBS. Following 3 weeks of growth and splitting cells were plated into slide chambers (Lab-Tek Nalge Nunc International, Rochester, N.Y., USA) at 2×10^5 cells per mL, and were allowed to grow thereon for 24 hrs until confluence was reached.
Twenty-four hrs after treatment, all cells were fixed with 4% PFA for one hr and washed 3× in 0.1 M PBS, incubated in 0.1% Triton-X100® for 6 min and then washed in 0.1 M PBS buffer. Each slide was assayed for double-strand DNA blunt-ended and overhanging 3′-OH ends, and counterstained for DNA with YO-PRO-1®.
The 3′-OH T specific overhang and blunt-ended DNA probes, shown in FIG. 2A and FIG. 2B, were ligated to the known oligonucleotide standard phantoms the amine apex oligoneuleotides, or alternatively, to fixed permeabilized U87 cells. The sections were pre-incubated in the ligation buffer without the probe (66 mM Tris-HCl, pH 7.5, 5 mM MgCl2, 0.1 mM dithioerythritol, 1 mM ATP, and 15% polyethylene glycol-8000) to ensure even saturation. The buffer was aspirated, and the full ligation mix containing the ligation buffer with probe, 35 μg/μL, and 0.5 U/μL T4 DNA ligase (New England BioLabs; Ipswich, Mass., USA) was applied to the sections, which were then incubated in a humidified box overnight.
The 3′-OH T-specific overhanging- and blunt-ended DNA probes shown in FIG. 11B were ligated to oligonucleotide standard phantoms, mammary gland or to fixed, permeabilized U87 cells. The sections were pre-incubated with ligation buffer in the absence of the probe (66 mM-Tris HCl, pH 7.5, 5 mM MgCl2, 0.1 mM dithioerythritol, 1 mM ATP, and 15% polyethylene glycol-8000) to ensure even saturation. The buffer was aspirated and the full ligation mix [ligation buffer+probe (35 μg/μL) and T4 DNA ligase (0.5 U/μL)] was applied to the sections, which were then incubated in a humidified box overnight. Controls consisted of probe-ligated phantoms, which were then incubated with either EcoRI or BamHI, in the appropriate buffer for 4 hrs, washed, cover-slipped using Fluoromount-G™ (SouthernBiotech), and then sealed with nail varnish.
(§1) Human glioblastoma cells (U87) (American Type Culture Collection, Manassas, Va., USA), and grown as recommended in DMEM with penicillin/streptomycin and 10% FBS. Following 3-weeks' growth and splitting, 5 mL of cells were plated into microscope slide chambers (Lab-Tek) at […], and were allowed to grow in the slide chambers for 24 hrs, until they became confluent. […] 24 hrs after treatment, all cells were fixed with 2% PFA for 1 hr, washed 3× in 0.1 M PBS, then incubated in 0.1% Triton X-100® for 6 min and finally washed in 0.1 M PBS buffer. Each slide was assayed for double-strand blunt (red) and overhanging (blue) DNA damage, and counterstained for DNA with YO-PRO-1® (green) or for γH2A.X with an FITC-labeled IgG antibody (green).

[2] = system: U87 cells; test: ddTUNEL assay (3′OH DNA ends); type: cell-based, human; settings: for ddTUNEL: approximate concentration of the probe in the cells: U87 cells following treatment, nominal path length of 6 μm, control 3.7
Procedure: ddTUNEL reaction buffer was prepared fresh daily by diluting a previously-frozen) stock solution of ddTUNEL buffer 1:5, and solution of cobalt chloride 1:25.
Stock reaction buffer, 5×: 125 mM Tris-HCl, 1 M sodium cacodylate, 1.25 mg/mL BSA, pH 6.6. Stock reaction CoCl2 solution, 25×: 25 mM cobalt chloride.
1. Wash samples twice in ddTUNEL reaction buffer for 10 min each.
2. Incubate sections in ddTUNEL reaction solution for 1-2 h at 37-40° C. in humidified chamber or overnight at room temperature.
5. Incubate with fluorescently labeled avidin or streptavidin ([…]) for 30 min.
(§2) U87 human glioblastoma cells were grown in DMEM with penicillin/streptomycin and 10% fetal bovine serum (FBS) (Invitrogen). Following 3-weeks' growth, 5 mL of cells were plated into slide chambers (Lab-Tek, Nalge Nunc International, Rochester, N.Y., USA) at 2×10^5 cells per mL, and grown for 24 hrs at 37° C. in a 5% CO2 incubator. […] 24-hrs' later, cells were fixed with 2% PFA, then permeabilized in 0.1% Triton X-100® as described above.

[3] = system: U87 cells; test: Fpg-ddTUNEL assay (oxidized/acylated DNA bases), with or without NaBH4 reduction; type: cell-based, human; settings: for Fpg-ddTUNEL: approximate concentration of the probe in the cells: U87 cells following treatment, nominal path length of 6 μm, control 0.9; for effect of NaBH4 reduction on the Fpg-ddTUNEL signal / oxo-base levels: ethanolic NaBH4
Procedure: Each sample was incubated in 25 mM sodium borohydride in 70% ethanol for 30 min. The sample was then washed twice in 0.1 M PBS. Typically, a slide box was employed, and it was half-filled with reducing solution so that half the sample(s) on the slide were reduced.
The sample was washed twice in 10 mM HEPES, 10 mM NaCl, 2 mM EDTA and 0.1% BSA and then ≈50 μL of the same buffer containing 100 U/mL of Fpg was applied to each of the sections, which were then incubated in a humidified box for ≧4 hr. The sample was washed twice in 100 mM PBS, and then twice in NEBuffer3. Approximately 50 μL of the same buffer containing 100 U/mL of CIAP was then applied to each section, and incubated for ≧2 hrs.
1. After completing both ddTUNEL and CIAP-ddTUNEL, each sample is washed twice in Fpg-buffer (Affymetrix) for 10 min.
2. Samples are then incubated in 100 U/mL Fpg (Affymetrix) in Fpg Buffer for 2 hr at 37° C. (or, alternatively, overnight at room temperature).
Following ddTUNEL and CIAP-ddTUNEL, capping 3′OH/3′PO4 ends, samples were washed twice in 10 mM HEPES, 10 mM NaCl, 2 mM EDTA and 0.1% BSA and then ≈50 μL of the same buffer containing 100 U/mL of Fpg was applied to each of the sections, and then incubated in a humidified box ≧4 hrs. Each sample was washed twice in 100 mM PBS, twice in NEBuffer3 and ≈50 μL of the same buffer containing 100 U/mL of CIAP was applied to each section and incubated for ≧2 hr; samples then underwent a third round of ddTUNEL.
as §2

[4] = system: U87 cells; test: LD50 of stressors on the cells over a 24-hr incubation; type: cell-based, human
[5] = system: U87 cells; test: γ-H2A.X histone labelling with FITC-labeled antibody; type: cell-based, human; settings: 24 hrs
Procedure: FITC-labeled Anti-H2A.X histone monoclonal antibody (BioLegend, San Diego, Calif.) was used as an internal control for DNA breaks, at a 1/50 dilution after the samples were blocked with 10% horse serum.
as §1
After incubation with 10% horse sera and washing, Ser139-phosphorylated H2A.X histone was imaged using an FITC-labeled monoclonal antibody (Biolegend, San Diego, Calif., USA) (1:500) following the methods of the manufacturer. Immune cell marker CD3ε was imaged using an FITC-labeled monoclonal antibody (Santa Cruz Biotechnologies, Santa Cruz, Calif.) (also at 1:500) as recommended by the manufacturer.

[6] = system: normal human astrocytes (NHA); settings: ethylmercury treatment (FIG. 21)
Procedure: Normal human astrocytes (NHA) were obtained from Lonza (Walkersville, Md., USA) and grown subject to their recommendations. NHA were grown to confluency in Astrocyte Cell Basal Medium supplemented with 3% FBS, Glutamine, Insulin, fhEGF, GA-1000 and ascorbic acid in 16-well Lab-Tek slide chambers (Nalge Nunc, Rochester, N.Y., USA), in a total volume of 240 μL.
NHA were incubated for 1 hour with probes before fixation. Fixation in buffered paraformaldehyde (PFA) was performed in two stages. Firstly, a 50-4 aliquot of ice-cold 8% PFA was added to each well, then gently aspirated and the wells were twice washed with ice-cold 2% PFA and then allowed to completely fix at 4° C. After fixation, cells were washed twice in 1×PBS (Thermo Fisher Scientific, Rockford, Ill., USA). The tanks were then removed from the slides, the well area covered with Fluoromount-G (SouthernBiotech, Ill., USA), cover-slipped and sealed with nail varnish.
3% FCS was present in the NHA medium throughout the time-course. To generate the time-course shown in FIG. 17A and FIG. 17B, NHA were exposed to Mitotracker, H2DCFAM and Hoechst at t=0.

| Compound | number of 3′-T-OH overhang ends / overhanging cuts [1] [per million base pairs] | number of blunt-ended breaks [1] | blebbing of treated cells ([1]; 24 hrs) | ddTUNEL: approximate concentration of the probe in the cells [2] [µM] | Fpg-ddTUNEL: approximate concentration of the probe in the cells [3] [µM] | effect of NaBH4 reduction on the Fpg-ddTUNEL signal / oxo-base levels ([3]; U87 cells) | LD50 [4] [µM] | further results |
| --- | --- | --- | --- | --- | --- | --- | --- | --- |
| O=NN(CCCl)C(=O)NCCCl [Carmustine, N,N′-bis(2-chloroethyl)-N-nitroso-urea] | ~350 | approximately 900 per million base pairs | formation of small blebs | 22.8 | 5.2 | unaltered by reduction | 2.5 | change in blunt-ended breaks ([1]; 24 hrs, Example 2): massive increases; increase in levels of overhangs ([1]; 24 hrs, Example 2): more than an order of magnitude; increase in ddTUNEL ([2]; U87 cells, vs control): six-fold; increase in Fpg-ddTUNEL ([3]; U87 cells, vs control): six-fold; difference in cytosolic γ-H2A.X levels, carmustine-treated vs temozolomide-treated cells [5]: 10 fold; transfer of γ-H2A.X into the cytosol [5]: transfer of γ-H2A.X into the cytosol |
| OO [H2O2, hydrogen peroxide] | – | – | formation of blebs | 9.4 | 4.5 | redox sensitive | 1000 | – |
| CCc1c2c(nc3ccc(OC(=O)N4CCC(N5CCCCC5)CC4)cc13)-c1cc3c(c(=O)n1C2)COC(=O)[C@]3(O)CC [Irinotecan, (S)-4,11-diethyl-3,4,12,14-tetrahydro-4-hydroxy-3,14-dioxo1H-pyrano[3′,4′:6,7]-indolizino[1,2-b]quinolin-9-yl-[1,4′bipiperidine]-1′-carboxylate] | 119 | 285 per million base pairs | – | 7.4 | 1.7 | unaltered by reduction | – | difference in overhang breaks vs control cells ([1]; 24 hrs, Example 2): greater than 50 ×; increase in number of blunt-ended breaks ([1]; vs control cells (FIG. 7)): more than 50%; increase in number of overhanging breaks ([1]; vs control cells (FIG. 7)): ~3 fold |
| C[n+]1ccc(-c2cc[n+](C)cc2)cc1 [Paraquat] | – | – | no blebbing apparent | 37.2 | 6.3 | – | 300 | blebbing of treated cells ([1]; 24 hrs, listed as paraquat): no evidence of blebbing; share of γ-H2AX found in the cytosol [5]: 65% |
| Cn1nnc2c(C(N)=O)ncn2c1=O [Temozolomide] | ~350 | approximately 900 per million base pairs | – | 8.7 | 13.7 | – | 25 | difference in levels of blunt-end breaks vs control cells ([1]; 24 hrs, Example 2): greater than 30 × |
| C[CH2][Hg] [ethylmercury] | – | – | – | – | – | – | – | formation of dichlorofluorescein from H2DCF-AM greater than superoxide/carbonyl formation [6]: approximately 20% |
